Experiments:
[1] = biological target: T1, receptors on KG-1 cells (GM-CSF/IL-3 receptors) (Homo sapiens, UniProt P26951+P32927); assay: Inhibition of 125I-IL-3 binding to KG-1 cells; conditions: for KI value on KG-1 cells relative to JM-1 cells: Table F data
T1 construct: endogenous in cells; host or cells: KG-1
T1 sequence (P26951 19-378): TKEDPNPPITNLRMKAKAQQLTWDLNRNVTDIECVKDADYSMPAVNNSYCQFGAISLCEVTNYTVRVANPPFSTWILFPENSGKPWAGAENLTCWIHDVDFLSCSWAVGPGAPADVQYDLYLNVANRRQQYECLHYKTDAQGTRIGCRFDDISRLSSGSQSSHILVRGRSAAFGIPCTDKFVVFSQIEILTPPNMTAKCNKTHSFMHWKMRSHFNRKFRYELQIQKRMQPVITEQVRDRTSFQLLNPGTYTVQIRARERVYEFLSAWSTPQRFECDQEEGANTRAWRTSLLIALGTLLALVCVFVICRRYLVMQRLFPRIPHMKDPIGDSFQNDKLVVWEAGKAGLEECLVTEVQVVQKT
T1 sequence (P32927 17-897): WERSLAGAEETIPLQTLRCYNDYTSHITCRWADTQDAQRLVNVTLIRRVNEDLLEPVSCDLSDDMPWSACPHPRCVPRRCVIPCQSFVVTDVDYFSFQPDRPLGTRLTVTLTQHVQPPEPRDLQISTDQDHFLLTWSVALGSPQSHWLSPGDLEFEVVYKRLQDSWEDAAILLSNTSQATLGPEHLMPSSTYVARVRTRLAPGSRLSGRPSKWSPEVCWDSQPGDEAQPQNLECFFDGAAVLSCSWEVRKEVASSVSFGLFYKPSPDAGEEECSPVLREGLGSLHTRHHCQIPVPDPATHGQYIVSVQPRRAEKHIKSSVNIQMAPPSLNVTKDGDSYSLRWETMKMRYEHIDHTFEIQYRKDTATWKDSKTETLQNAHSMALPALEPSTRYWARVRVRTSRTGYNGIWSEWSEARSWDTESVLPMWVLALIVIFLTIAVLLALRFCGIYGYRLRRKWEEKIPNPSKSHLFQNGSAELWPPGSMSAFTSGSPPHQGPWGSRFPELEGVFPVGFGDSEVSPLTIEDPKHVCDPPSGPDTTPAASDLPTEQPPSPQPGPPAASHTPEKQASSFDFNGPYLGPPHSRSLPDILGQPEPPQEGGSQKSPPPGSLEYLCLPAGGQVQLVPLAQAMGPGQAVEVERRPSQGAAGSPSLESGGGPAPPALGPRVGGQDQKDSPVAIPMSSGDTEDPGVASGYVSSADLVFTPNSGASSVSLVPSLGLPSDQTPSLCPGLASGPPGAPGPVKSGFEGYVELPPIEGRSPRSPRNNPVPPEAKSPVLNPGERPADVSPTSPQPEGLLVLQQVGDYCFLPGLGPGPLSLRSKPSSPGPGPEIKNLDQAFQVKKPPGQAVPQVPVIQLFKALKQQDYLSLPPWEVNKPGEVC
Protocol: (§1) Briefly, 2-10 μg of recombinant protein in 50 μl 0.2M sodium phosphate, pH 7.2, was combined with 50 μl enzymobead reagent, 2 mCi of sodium iodide in 20 μl of 0.05M sodium phosphate pH 7 and 10 μl of 2.5% β-D-glucose. After 10 min at 25° C., sodium azide (10 μl of 50 mM) and sodium metabisulfite (10 μl of 5 mg/ml) were added sequentially and incubation continued for 5 minutes at 25° C.
(§2) B. Binding Assays. Binding assays were performed using JM-1, KG-1, HL-60 and AML-193 cells.

AML-193 cells = assay: Thymidine incorporation assay, proliferation of AML-193 cells; format: cell-based, human; conditions: for Specific Activity: one unit = amount of growth factor for half-maximal thymidine incorporation, AML-193 cells
Protocol: The cells were split twice weekly and were seeded into fresh medium at a density of 300,000/ml.
These samples were then serially diluted by 3-fold through the additional 11 wells of the microtitre plate. […] Tritiated thymidine ([…]) was added to each well for an additional 6 hours of incubation and the samples were harvested with an automated sample harvester and counted by liquid scintillation. One unit of activity is defined as the amount of growth factor required to stimulate half-maximal thymidine incorporation.

[2] = test system: unfractionated human bone marrow; assay: Human bone marrow colony formation (CFU-GEMM, CFU-GM, BFU-E); format: cell-based; conditions: for Colonies (Mean ± S.D.) CFU-GM: agar
Protocol: Non-adherent, low density, T cell deplated cultures of human bone marrow were plated in methylcellulose (BFU-E, CFU-GEMM, 40,000 cells per plate) or agar (CFU-GM; 40,000 cells per culture) as described by Lu et al., Blood 61:250 (1983). Methylcellulose cultures contained 1 unit per plate erythropoietin and accounts for the background of 48±2 BFU-E in the absence of cytokine. Cultures were incubated in a 5% O2, 5% CO2, 90% N2 atmosphere for 14 days and counted with an inverted microscope.

[3] = biological target: T2, receptors on AML-193 cells (GM-CSF/IL-3 receptors) (Homo sapiens, UniProt P26951+P32927); assay: Inhibition of 125I-IL-3 binding to AML-193 cells; conditions: normalized data, JM-1 as standard
T2 construct: endogenous in cells; host or cells: AML-193
T2 sequence (P26951 19-378): T1 sequence (P26951 19-378)
T2 sequence (P32927 17-897): T1 sequence (P32927 17-897)
Protocol: as §1, §2

[4] = Table D, 156 pg/ml (GM-CSF + IL-3: 156 ± 156 [sic]), 14 days
[5] = Table D, 312 pg/ml (GM-CSF + IL-3: 312 + 312), 14 days
[6] = Table D, 625 pg/ml (GM-CSF + IL-3: 625 + 625), 14 days
[7] = Table D, 625 pg/ml (GM-CSF + IL-3: 625 + 625), with erythropoietin, background 48 ± 2
[8] = Table D, 1250 pg/ml (GM-CSF + IL-3: 1250 + 1250), 14 days
[9] = Table D, 1250 pg/ml (GM-CSF + IL-3: 1250 + 1250), with erythropoietin, background 48 ± 2
[10] = Table D, 2500 pg/ml (GM-CSF + IL-3: 2500 + 2500), 14 days
[11] = Table D, 2500 pg/ml (GM-CSF + IL-3: 2500 + 2500), with erythropoietin, background 48 ± 2
[12] = Table D, 5000 pg/ml (GM-CSF + IL-3: 5000 + 5000), 14 days
[13] = Table D, 5000 pg/ml (GM-CSF + IL-3: 5000 + 5000), with erythropoietin, background 48 ± 2

## huIL-3[Pro^8 Asp^15 Asp^70 ]/huGM-CSF[Leu^23 Asp^27 Glu^39 ] [IL-3/GM-CSF]
[1]
  KI value on KG-1 cells relative to JM-1 cells: 10-20 fold

## huGM-CSF[Leu^23 Asp^27 Glu^39 ]/Gly4 SerGly5 Ser/huIL-3[Pro^8 Asp^15 Asp^70 ] [GM-CSF/IL-3]
AML-193 cells; AML-193 thymidine incorporation
  Specific activity relative to IL-3 or GM-CSF alone or GM-CSF plus IL-3 combined: approximately 10 fold
AML-193 cells
  Specific Activity: 1.81 × 10^6 units/mg
[2]; FIG. 3A-3D
  BFU-E, CFU-GM and CFU-GEMM colony formation relative to IL-3 or GM-CSF alone, or IL-3 and GM-CSF combined: enhances
[2]; Table D, 78 pg/ml, 14 days
  Colonies (Mean ± S.D.) CFU-GEMM: 0 colonies
  Colonies (Mean ± S.D.) CFU-GM: 16 ± 2 colonies
[2]; Table D, 78 pg/ml, with erythropoietin, background 48 ± 2
  Colonies (Mean ± S.D.) BFU-E: 50 ± 3 colonies
[2]; [4]
  Colonies (Mean ± S.D.) CFU-GEMM: 1.0 ± 0.4 colonies
  Colonies (Mean ± S.D.) CFU-GM: 24 ± 3 colonies
[2]; Table D, 156 pg/ml (GM-CSF + IL-3: 156 ± 156 [sic]), with erythropoietin, background 48 ± 2
  Colonies (Mean ± S.D.) BFU-E: 49 ± 6 colonies
[2]; [5]
  Colonies (Mean ± S.D.) CFU-GEMM: 2.5 ± 0.7 colonies
  Colonies (Mean ± S.D.) CFU-GM: 35 ± 2 colonies
[2]; Table D, 312 pg/ml (GM-CSF + IL-3: 312 + 312), with erythropoietin, background 48 ± 2
  Colonies (Mean ± S.D.) BFU-E: 70 ± 4 colonies
[2]; [6]
  Colonies (Mean ± S.D.) CFU-GEMM: 4.3 ± 0.5 colonies
  Colonies (Mean ± S.D.) CFU-GM: 52 ± 6 colonies
[2]; [7]
  Colonies (Mean ± S.D.) BFU-E: 83 ± 5 colonies
[2]; [8]
  Colonies (Mean ± S.D.) CFU-GEMM: 6.8 ± 0.5 colonies
  Colonies (Mean ± S.D.) CFU-GM: 59 ± 2 colonies
[2]; [9]
  Colonies (Mean ± S.D.) BFU-E: 125 ± 8 colonies
[2]; [10]
  Colonies (Mean ± S.D.) CFU-GEMM: 10.3 ± 0.9 colonies
  Colonies (Mean ± S.D.) CFU-GM: 74 ± 1 colonies
[2]; [11]
  Colonies (Mean ± S.D.) BFU-E: 119 ± 5 colonies
[2]; [12]
  Colonies (Mean ± S.D.) CFU-GEMM: 10.3 ± 1 colonies
  Colonies (Mean ± S.D.) CFU-GM: 97 ± 2 colonies
[2]; [13]
  Colonies (Mean ± S.D.) BFU-E: 107 ± 5 colonies
[2]; Table E, 78 pg/ml
  Colonies (Mean ± S.D.) CFU-GM: 2 ± 0.3 colonies
[2]; Table E, 78 pg/ml, media control 2 ± 0
  Colonies (Mean ± S.D.) CFU-GEMM: 2.0 ± 0 colonies
[2]; Table E, 78 pg/ml, media control 44 ± 4
  Colonies (Mean ± S.D.) BFU-E: 44 ± 1 colonies
[2]; Table E, 156 pg/ml (GM-CSF + IL-3: 156 + 156)
  Colonies (Mean ± S.D.) CFU-GM: 5 ± 1 colonies
[2]; Table E, 156 pg/ml, media control 2 ± 0
  Colonies (Mean ± S.D.) CFU-GEMM: 2.0 ± 1 colonies
[2]; Table E, 156 pg/ml, media control 44 ± 4
  Colonies (Mean ± S.D.) BFU-E: 47 ± 3 colonies
[2]; Table E, 312 pg/ml (GM-CSF + IL-3: 312 + 312)
  Colonies (Mean ± S.D.) CFU-GM: 8 ± 1 colonies
[2]; Table E, 312 pg/ml, media control 2 ± 0
  Colonies (Mean ± S.D.) CFU-GEMM: 5.5 ± 0.5 colonies
[2]; Table E, 312 pg/ml, media control 44 ± 4
  Colonies (Mean ± S.D.) BFU-E: 71 ± 1 colonies
[2]; Table E, 625 pg/ml (GM-CSF + IL-3: 625 + 625)
  Colonies (Mean ± S.D.) CFU-GM: 15 ± 2 colonies
[2]; Table E, 625 pg/ml (GM-CSF + IL-3: 625 + 625), media control 2 ± 0
  Colonies (Mean ± S.D.) CFU-GEMM: 6.0 ± 1 colonies
[2]; Table E, 625 pg/ml (GM-CSF + IL-3: 625 + 625), media control 44 ± 4
  Colonies (Mean ± S.D.) BFU-E: 97 ± 2 colonies
[2]; Table E, 1250 pg/ml (GM-CSF + IL-3: 1250 + 1250)
  Colonies (Mean ± S.D.) CFU-GM: 23 ± 2 colonies
[2]; Table E, 1250 pg/ml (GM-CSF + IL-3: 1250 + 1250), media control 2 ± 0
  Colonies (Mean ± S.D.) CFU-GEMM: 9.0 ± 0 colonies
[2]; Table E, 1250 pg/ml (GM-CSF + IL-3: 1250 + 1250), media control 44 ± 4
  Colonies (Mean ± S.D.) BFU-E: 127 ± 7 colonies
[2]; Table E, 2500 pg/ml (GM-CSF + IL-3: 2500 + 2500)
  Colonies (Mean ± S.D.) CFU-GM: 45 ± 5 colonies
[2]; Table E, 2500 pg/ml (GM-CSF + IL-3: 2500 + 2500), media control 2 ± 0
  Colonies (Mean ± S.D.) CFU-GEMM: 10.0 ± 1 colonies
[2]; Table E, 2500 pg/ml (GM-CSF + IL-3: 2500 + 2500), media control 44 ± 4
  Colonies (Mean ± S.D.) BFU-E: 125 ± 10 colonies
[2]; Table E, 5000 pg/ml (GM-CSF + IL-3: 5000 + 5000)
  Colonies (Mean ± S.D.) CFU-GM: 43 ± 5 colonies
[2]; summary of Tables D and E
  Potency in enhancing proliferation of unfractionated human bone marrow cells: equivalent in potentcy to a mixture of GM-CSF and IL-3
[3]
  Binding affinity to AML-193 cells relative to JM-1 cells: 11.1 fold
[1]
  KI value on KG-1 cells relative to JM-1 cells: 10-20 fold
[1]; normalized data, JM-1 as standard
  Binding affinity to KG-1 cells relative to JM-1 cells: 41.0 fold

## GM-CSF: recombinant human granulocyte-macrophage colony-stimulating factor expressed in yeast, comparator
AML-193 cells
  Specific Activity: 9.74 × 10^4 units/mg
[2]; [5]
  Colonies (Mean ± S.D.) CFU-GEMM: 0 colonies
  Colonies (Mean ± S.D.) CFU-GM: 16 ± 1 colonies
[2]; [6]
  Colonies (Mean ± S.D.) CFU-GEMM: 0.3 ± 0.3 colonies
  Colonies (Mean ± S.D.) CFU-GM: 21 ± 2 colonies
[2]; [7]
  Colonies (Mean ± S.D.) BFU-E: 46 ± 3 colonies
[2]; [8]
  Colonies (Mean ± S.D.) CFU-GEMM: 1.5 ± 0.3 colonies
  Colonies (Mean ± S.D.) CFU-GM: 33 ± 2 colonies
[2]; [9]
  Colonies (Mean ± S.D.) BFU-E: 47 ± 4 colonies
[2]; [10]
  Colonies (Mean ± S.D.) CFU-GEMM: 3.5 ± 0.7 colonies
  Colonies (Mean ± S.D.) CFU-GM: 42 ± 2 colonies
[2]; [11]
  Colonies (Mean ± S.D.) BFU-E: 61 ± 1 colonies
[2]; [12]
  Colonies (Mean ± S.D.) CFU-GEMM: 6.8 ± 0.6 colonies
  Colonies (Mean ± S.D.) CFU-GM: 42 ± 4 colonies
[2]; [13]
  Colonies (Mean ± S.D.) BFU-E: 63 ± 3 colonies

— patent US5073627A (Immunex Corporation, priority 1990, dated 1991)
